Non-standard residues stand in square brackets, D forms with d. Residues, ends and D or L forms follow the SMILES beside them. 1Nal = N[C@@H](Cc1cccc2ccccc12)C(=O)O; d(aIle) = CC[C@H](C)[C@@H](N)C(=O)O; Hyp = O=C(O)[C@@H]1C[C@@H](O)CN1; Pip = O=C(O)[C@@H]1CCCCN1; Aze = O=C(O)[C@@H]1CCN1
Assays:
[1] = target: T1, endothelin receptor A (ETA) (Sus scrofa, UniProt Q29010); experiment: Assay of Affinity for Receptor (1): Binding Activity on ETA Receptor; design: key to Binding Activity on ET Receptor (R. act.) ETA: relative binding activity; reference cyclic pentapeptide = 1.0; conditions: porcine heart membrane fraction; for Binding Activity on ET Receptor (R. act.) ETA: specific activity, binding activity of cyclo[-D-Glu-Ala-D-aIle-Leu-D-Trp-] taken as 1.0, 125I-labeled endothelin-1, 25° C., 1 hour
T1 construct: A membrane fraction prepared from the porcine heart; from tissue; host or cells: porcine heart membrane fraction
T1 sequence (Q29010 21-427): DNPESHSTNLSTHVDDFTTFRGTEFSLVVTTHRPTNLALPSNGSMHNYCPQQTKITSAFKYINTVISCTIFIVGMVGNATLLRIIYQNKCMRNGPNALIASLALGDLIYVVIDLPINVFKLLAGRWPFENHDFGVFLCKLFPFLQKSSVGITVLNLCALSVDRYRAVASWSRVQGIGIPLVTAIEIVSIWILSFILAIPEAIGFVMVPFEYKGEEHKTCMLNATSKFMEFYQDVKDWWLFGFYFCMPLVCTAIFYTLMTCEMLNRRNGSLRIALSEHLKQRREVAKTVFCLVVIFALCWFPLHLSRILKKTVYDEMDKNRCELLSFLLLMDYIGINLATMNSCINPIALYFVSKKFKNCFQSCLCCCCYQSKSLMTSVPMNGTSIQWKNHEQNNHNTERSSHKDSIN
Procedure: Assay of Affinity for Receptor (1) . . . Binding Activity on ETA Receptor
A membrane fraction prepared from the porcine heart was diluted to 0.15 mg/ml by using a buffer solution for assay, and 100 μl of the resulting suspension of the membrane fraction was poured into each assay tube to use for assay. To this suspension of the membrane fraction was added 2 μl of 5 nM ^125 I-labeled endothelin-1 solution. Further, 3 μl of a test peptide solution was added thereto, followed by incubation at a temperature of 25° C. for 1 hour. Then, the resulting suspension was diluted with 900 μl of the buffer solution for assay cooled with ice, and thereafter separated into a supernatant and a precipitate by centrifugation at 12,000×g for 10 minutes. Cell membranes and an endothelin receptor A (ETA) embedded therein were contained in the precipitate, and radioactive iodine-labeled endothelin combined with the receptor was also recovered in the precipitate. Accordingly, the amount of radioactive iodine-labeled endothelin combined with the endothelin receptor A (ETA) was determined by measuring the amount of radioactive iodine contained in the precipitate with a gamma-ray counter. The cyclic pentapeptide described in Japanese Patent Application No. 2-413828/1990, cyclo[-D-Glu-Ala-D-aIle-Leu-D-Trp-], was used as a control compound. The numerical value of ETA shown in Table 1 is the value of specific activity, taking the binding activity of this cyclic pentapeptide on the receptor A as 1.0. The binding activity (IC50) of this cyclic pentapeptide on the ETA receptor is 2×10^-6 M.

[2] = target: T2, endothelin receptor B (ETB) (Bos taurus, UniProt P28088); experiment: Assay of Affinity for Receptor (2): Binding Activity on ETB Receptor *1; design: key: relative specific activity, Example 8 compound = 100; conditions: specific activity, binding activity of the compound of Example 8 taken as 100; bovine brain membrane fraction, 125I labeled endothelin-1, 25° C., 1 hour
T2 construct: A membrane fraction prepared from the bovine brain; from tissue; host or cells: bovine brain membrane fraction
T2 sequence (P28088 27-441): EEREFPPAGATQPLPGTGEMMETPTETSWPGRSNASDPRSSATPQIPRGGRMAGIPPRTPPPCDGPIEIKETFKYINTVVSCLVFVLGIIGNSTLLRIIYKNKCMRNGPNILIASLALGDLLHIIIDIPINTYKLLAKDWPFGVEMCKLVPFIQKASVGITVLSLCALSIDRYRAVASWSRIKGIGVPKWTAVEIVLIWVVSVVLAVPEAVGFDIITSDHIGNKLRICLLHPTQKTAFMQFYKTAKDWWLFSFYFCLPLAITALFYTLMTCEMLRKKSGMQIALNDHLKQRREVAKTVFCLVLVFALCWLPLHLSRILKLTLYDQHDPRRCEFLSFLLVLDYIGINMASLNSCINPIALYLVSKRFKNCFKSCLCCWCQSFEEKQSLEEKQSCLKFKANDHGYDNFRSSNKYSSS
Procedure: Assay of Affinity for Receptor (2) . . . Binding Activity on ETB Receptor *1
A membrane fraction prepared from the bovine brain was diluted to 0.15 mg/ml by using a buffer solution for assay, and 100 μl of the resulting suspension of the membrane fraction was poured into each assay tube to use for assay. To this suspension of the membrane fraction was added 2 μl of 5 nM ^125 I labeled endothelin-1 solution. Further, 3 μl of a test peptide solution was added thereto, followed by incubation at a temperature of 25° C. for 1 hour. Then, the resulting suspension was diluted with 900 μl of the buffer solution for assay cooled with ice, and thereafter separated into a supernatant and a precipitate by centrifugation at 12,000×g for 10 minutes. Cell membranes and an endothelin receptor B (ETB) embedded therein were contained in the precipitate, and radioactive iodine-labeled endothelin bound to the receptor was also recovered in the precipitate. Accordingly, the amount of radioactive iodine-labeled endothelin bound to the endothelin receptor B (ETB) was determined by measuring the amount of radioactive iodine contained in the precipitate with a gamma-ray counter. The numerical value of ETB shown in Table 1 is the value of specific activity, taking the binding activity of the compound of Example 8 on the receptor B as 100.

[3] = test system: ETB receptor (guinea pig kidney crude receptor membrane fraction); experiment: ETB Radio Receptor Assay *2; assay type: binding; conditions: relative activity (Example 8 given as 100), 125I-endothelin-1, 37° C., 90 minutes
Procedure: ETB Radio Receptor Assay *2
In the endothelin radio receptor assay, guinea pigs' kidneys were used. Guinea pigs (Std Hartrey, male 250 g, Japan SLC Ltd.) were made to have a cerebral concussion and sacrificed by bleeding from carotid arteries to pick up the kidneys and removed fat therefrom to prepare the kidneys. The obtained kidneys were sliced and homogenized by politron homogenizer in 20 ml of 50 mM Tris-HCl buffer [pH 7.4; 20 mM NaHCO3, 0.1 mM PMSF (Phenylmethylsulfonyl Fluoride), 1 mM EDTA (Ethylenediaminetetraacetic acid)] per one kidney. The homogenized kidney was applied to a centrifugation at 1,000×g for 15 minutes and the supernatant was further applied to a centrifugation for 20 minutes at 30,000×g. The resulting precipitate was twice washed with 50 mM Tris-HCl buffer (pH 7.4) containing 0.1 mM PMSF, 1 mM EDTA. The resultant was stored at -80 ° C. as a crude receptor membrane fraction and was used as the suspension in the following buffer when necessary.
740 Bq of ^125 I-endothelin-1 (81.4 TBq/mmol, Du Pont, USA) as a radio ligand, the crude membrane fraction (2.1 μg protein) and samples were added to the following buffer. The reaction was performed at 37° C., for 90 minutes in 0.2 ml of the buffer [50 mM Tris-HCl buffer (pH 7.4) containing 0.1 mM PMSF, 1 mM EDTA, 0.2% bovine serum albumin].
The reaction was stopped by fast filtration on a glass filter (GF/B, Wattman, USA) by Cell Harvestor (290 PHD, Cambridge-Technology, Great Britain), and the filter was three times washed with 50 mM Tris-HCl buffer (pH 7.4). Radio activity remained on the filter was assayed by a gamma counter.

Binding Activity on ET Receptor (R. act.) ETA [1]	Binding Activity on ET Receptor (R. act.) ET8 *1 [2]	Binding Activity on ET Receptor (R. act.) ET8 *2 [3]	IC50 ([1]; 125I-labeled endothelin-1)	SMILES
76	100	100	–	CC(C)C[C@@H]1NC(=O)[C@@H](CC(C)C)NC(=O)[C@H](CC(=O)O)NC(=O)[C@H](Cc2c[nH]c3ccccc23)NC(=O)[C@@H](CC(=O)O)NC(=O)[C@@H](Cc2c[nH]c3ccccc23)NC1=O [Example 8, cyclo[-D-Asp-Trp-Asp-D-Leu-Leu-D-Trp-]] (cyclo(D[dL]L[dW][dD]W))
56	140	67	–	CC(C)C[C@@H]1NC(=O)[C@@H](CC(C)C)NC(=O)[C@H](CC(=O)O)NC(=O)[C@@H]2CCCN2C(=O)[C@@H](CC(=O)O)NC(=O)[C@@H](Cc2c[nH]c3ccccc23)NC1=O [Example 9, cyclo[-D-Asp-Pro-Asp-D-Leu-Leu-D-Trp-]] (cyclo(D[dL]L[dW][dD]P))
70	160	120	–	CC(C)C[C@@H]1NC(=O)[C@@H](CC(C)C)NC(=O)[C@H](CC(=O)O)NC(=O)[C@@H]2C[C@@H](O)CN2C(=O)[C@@H](CC(=O)O)NC(=O)[C@@H](Cc2c[nH]c3ccccc23)NC1=O [Example 14, cyclo[-D-Asp-Hyp-Asp-D-Leu-Leu-D-Trp-]] (cyclo(D[dL]L[dW][dD][Hyp]))
10	14	34	–	CC(C)C[C@@H]1NC(=O)[C@@H](CC(C)C)NC(=O)[C@H](CC(=O)O)NC(=O)[C@H](CC(=O)O)NC(=O)[C@@H](CC(=O)O)NC(=O)[C@@H](Cc2c[nH]c3ccccc23)NC1=O [Example 16, Cyclo[--D--Asp--Asp--Asp--D--Leu--Leu--D--Trp--]] (cyclo(DD[dL]L[dW][dD]))
8.3	11	7.7	–	CC(C)C[C@@H]1NC(=O)[C@@H](CC(C)C)NC(=O)[C@H](CC(=O)O)NC(=O)[C@H](Cc2cccc3ccccc23)NC(=O)[C@@H](CC(=O)O)NC(=O)[C@@H](Cc2c[nH]c3ccccc23)NC1=O [Example 23, Cyclo[--D--Asp--Nal(1)--Asp--D--Leu--Leu--D--Trp--]] (cyclo([1Nal]D[dL]L[dW][dD]))
30	25	57	–	CC(C)C[C@@H]1NC(=O)[C@@H](CC(C)C)NC(=O)[C@H](CC(=O)O)NC(=O)[C@@H]2CCN2C(=O)[C@@H](CC(=O)O)NC(=O)[C@@H](Cc2c[nH]c3ccccc23)NC1=O [Example 25, Cyclo[--D--Asp--Azc--Asp--D--Leu--Leu--D--Trp--]] (cyclo([Aze]D[dL]L[dW][dD]))
25	38	73	–	CC(C)C[C@@H]1NC(=O)[C@@H](CC(C)C)NC(=O)[C@H](CC(=O)O)NC(=O)[C@@H]2CCCCN2C(=O)[C@@H](CC(=O)O)NC(=O)[C@@H](Cc2c[nH]c3ccccc23)NC1=O [Example 26, Cyclo[--D--Asp--Pip--Asp--D--Leu--Leu--D--Trp--]] (cyclo(D[dL]L[dW][dD][Pip]))
20	77	44	–	CC(C)C[C@@H]1NC(=O)[C@@H](CC(C)C)NC(=O)[C@H](CCC(=O)O)NC(=O)[C@H](Cc2c[nH]c3ccccc23)NC(=O)[C@@H](CC(=O)O)NC(=O)[C@@H](Cc2c[nH]c3ccccc23)NC1=O [Example 34, Cyclo[--D--Asp--Trp--Glu--D--Leu--Leu--D--Trp--]] (cyclo(E[dL]L[dW][dD]W))
9.1	52	24	–	CC(C)C[C@@H]1NC(=O)[C@H](Cc2c[nH]c3ccccc23)NC(=O)[C@@H](CC(=O)O)NC(=O)[C@@H](Cc2c[nH]c3ccccc23)NC(=O)[C@H](CC(C)C)NC(=O)[C@@H](CC(C)C)NC1=O [Example 35, Cyclo[--D--Asp--Trp--Leu--D--Leu--Leu--D--Trp--]] (cyclo(L[dL]L[dW][dD]W))
17	40	42	–	CC(C)C[C@@H]1NC(=O)[C@@H](CC(C)C)NC(=O)[C@@H]2CCCN2C(=O)[C@H](Cc2c[nH]c3ccccc23)NC(=O)[C@@H](CC(=O)O)NC(=O)[C@@H](Cc2c[nH]c3ccccc23)NC1=O [Example 36, Cyclo[--D--Asp--Trp--Pro--D--Leu--Leu--D--Trp--]] (cyclo(L[dW][dD]WP[dL]))
1.0	less than 1	–	2000 nM	CC[C@H](C)[C@H]1NC(=O)[C@H](C)NC(=O)[C@@H](CCC(=O)O)NC(=O)[C@@H](Cc2c[nH]c3ccccc23)NC(=O)[C@H](CC(C)C)NC1=O [cyclo[-D-Glu-Ala-D-aIle-Leu-D-Trp-], reference compound] (cyclo(A[d(aIle)]L[dW][dE]))

— US5616684A, “Cyclic peptides and use thereof” (priority 1991, dated 1997)
